Seven molecules from ChEMBL document CHEMBL1201862, “PubChem BioAssay data set” (2004) can be followed below.

Among the test systems are K562; HCT-116; SK-MEL-2; SF-539; OVCAR-5; HOP-62; ACHN; SF-268; SK-MEL-28; SN12C; SK-MEL-5; KM12; HL-60; HT-29; DU-145; U-251; HOP-92; SNB-19; RXF 393; HCT-15.
Holding throughout (assay): growth of human tumour cells (NCI), 48 h

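Results reflect a 48-hour exposure of cells in 96-well plates to compound at five concentrations. Here, GI50 denotes the concentration required for 50% inhibition of growth.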 Active and inactive are the calls of the source. No stated cut-off is given here; in the data, active = GI50 up to about 1.1 µM and inactive = higher.

Consider `Cn1c2c(c3ccccc31)CCN(CCCCN1CCN(c3ccccc3)CC1)C2=O`, for which the GI50 in the assay on K562 is 4.15 µM (inactive); in the assay with HCT-116 it was 12.9 µM (inactive); in the assay with SK-MEL-2, 24 µM (inactive); in the assay on SF-539, 34 µM (inactive); in the assay on OVCAR-5, 19.6 µM (inactive); in the assay on HOP-62, 85.7 µM (inactive). For the same molecule, the GI50 in the assay on ACHN was > 100 µM (inactive); with SF-268 it was 56 µM (inactive); in the assay with SK-MEL-28, 15.8 µM (inactive); in the assay on SN12C it was > 65.6 µM (inactive); in the assay with SK-MEL-5, 5.69 µM (inactive); in the assay on KM12, 30.1 µM (inactive). In addition, the GI50 in the assay with HL-60 was 7.78 µM (inactive); in the assay on HT-29 it was 4.16 µM (inactive); in the assay on DU-145, 35.9 µM (inactive); in the assay with U-251, 34.8 µM (inactive); in the assay with HOP-92 it was > 29.1 µM (inactive); in the assay with SNB-19, 75.9 µM (inactive). Moreover, the GI50 was 10.8 µM (inactive) with RXF 393 and 17.2 µM in the assay with HCT-15.

Consider `O=C1c2ccccc2CC12Cc1cc3c(cc1C2)CCC3`, for which the GI50 with K562 is 86.7 µM (inactive); with HCT-116, 30.6 µM (inactive); with SK-MEL-2, 31.2 µM (inactive); in the assay with SF-539 it was > 100 µM (inactive); in the assay with OVCAR-5, > 100 µM (inactive); in the assay on HOP-62, > 100 µM (inactive). For the same molecule, the GI50 is 43.3 µM (inactive) with ACHN; > 100 µM (inactive) in the assay on SF-268; 45.8 µM (inactive) with SK-MEL-28; 59.7 µM (inactive) in the assay on SN12C; 20.5 µM (inactive) in the assay with SK-MEL-5; 53.5 µM (inactive) with KM12. Moreover, the GI50 in the assay with HL-60 is 24 µM (inactive); with HT-29 it was 21.9 µM (inactive); in the assay on DU-145, > 100 µM (inactive); in the assay on U-251 it was 43.1 µM (inactive); with HOP-92, 37.6 µM (inactive); in the assay with SNB-19, > 100 µM (inactive). Further, the GI50 is 40.6 µM (inactive) in the assay with RXF 393 and 43.2 µM in the assay with HCT-15.

In the case of `COc1ccc(Nc2nc(N)c(C(=O)c3cccs3)s2)cc1`, the GI50 in the assay with K562 is 3.64 µM (inactive); with HCT-116 it was 3.22 µM (inactive); in the assay on SK-MEL-2 it was 10.9 µM (inactive); in the assay on SF-539 it was 4.21 µM (inactive); with OVCAR-5, 15.8 µM (inactive); in the assay with HOP-62 it was 16.9 µM (inactive). The GI50 in the assay on ACHN was 12.2 µM (inactive); in the assay with SF-268, 17 µM (inactive); with SK-MEL-28, 31 µM (inactive); in the assay with SN12C, 27.5 µM (inactive); in the assay with SK-MEL-5, 2.8 µM (inactive); with KM12 it was 2.99 µM (inactive). The GI50 was 3.56 µM (inactive) in the assay with HL-60; 3.35 µM (inactive) in the assay on HT-29; 5.56 µM (inactive) with DU-145; 7.5 µM (inactive) in the assay with U-251; 21.1 µM (inactive) in the assay on HOP-92; 11 µM (inactive) in the assay on SNB-19. For the same molecule, the results for the GI50 in the assay on RXF 393 and in the assay with HCT-15 were 5.55 µM (inactive) and 3.11 µM, respectively.

For `O=S(=O)(Cc1nc2ccccc2s1)c1nc2ccccc2s1`, the GI50 in the assay on K562 is 12.6 µM (inactive); in the assay with HCT-116 it was 13.9 µM (inactive); with SK-MEL-2 it was 17.4 µM (inactive); in the assay with SF-539, 21.2 µM (inactive); in the assay with OVCAR-5, 20 µM (inactive); in the assay with HOP-62, 49.3 µM (inactive). The GI50 was 16.3 µM (inactive) with ACHN; 15.6 µM (inactive) in the assay with SF-268; 15.6 µM (inactive) in the assay with SK-MEL-28; 16.8 µM (inactive) in the assay with SN12C; 12.9 µM (inactive) in the assay with SK-MEL-5; 18.2 µM (inactive) in the assay with KM12. Besides, the GI50 with HL-60 is 8.11 µM (inactive); in the assay on HT-29, 18.2 µM (inactive); in the assay on DU-145, 17.9 µM (inactive); in the assay on U-251, 18.5 µM (inactive); in the assay on HOP-92 it was 12.9 µM (inactive); with SNB-19, 21.5 µM (inactive). For the same molecule, the values for the GI50 in the assay with RXF 393 and with HCT-15 were 22.5 µM (inactive) and 16.3 µM, respectively.

In the case of `CC(=O)c1ccc(NCN2C(=O)c3ccccc3C2=O)cc1`, the GI50 with K562, in the assay on HCT-116, in the assay with SK-MEL-2, in the assay on SF-539, in the assay on OVCAR-5 and with HOP-62 was > 100 µM (inactive) each time. Also, the GI50 in the assay with ACHN, in the assay on SF-268, with SK-MEL-28, with SN12C, in the assay with SK-MEL-5 and in the assay on KM12 was > 100 µM (inactive) in each case. Further, the GI50 with HL-60 is 36.9 µM (inactive); in the assay with HT-29, > 100 µM (inactive); with DU-145, > 100 µM (inactive); in the assay on U-251 it was > 100 µM (inactive); in the assay on HOP-92, > 100 µM (inactive); in the assay on SNB-19, > 100 µM (inactive). Further, the values for the GI50 with RXF 393 and with HCT-15 were > 100 µM (inactive) and above 100 µM, respectively.

In the case of `CC(=O)/C=C/C1=C(C)CCCC1(C)CC(C)C` (stereo not given), the GI50 in the assay with K562 is 16 µM (inactive); with HCT-116, 25.5 µM (inactive); in the assay with SK-MEL-2 it was 19.6 µM (inactive); with SF-539 it was 31.9 µM (inactive); in the assay with OVCAR-5, 61.5 µM (inactive); in the assay with HOP-62, 57.9 µM (inactive). Besides, the GI50 in the assay with ACHN was 22.1 µM (inactive); in the assay with SF-268, 39.7 µM (inactive); in the assay on SK-MEL-28, 40.8 µM (inactive); with SN12C it was 18.8 µM (inactive); in the assay with SK-MEL-5 it was 16.9 µM (inactive); in the assay with KM12, 34.8 µM (inactive). The GI50 is 11.7 µM (inactive) in the assay on HL-60; 28 µM (inactive) in the assay with HT-29; 69.3 µM (inactive) in the assay with DU-145; 26.7 µM (inactive) in the assay on U-251; 6.73 µM (inactive) in the assay with HOP-92; 27.4 µM (inactive) in the assay on SNB-19. The GI50 with RXF 393 was 14.8 µM (inactive); in the assay on HCT-15, 15.1 µM.

For `COc1cc2ccccc2c2cc([N+](=O)[O-])oc12`, the GI50 in the assay on K562 was 0.319 µM (active); with HCT-116 it was 0.249 µM (active); in the assay on SK-MEL-2 it was 0.197 µM (active); with SF-539 it was 0.91 µM (active); in the assay on OVCAR-5, 3.39 µM (inactive); in the assay with HOP-62 it was 3.37 µM (inactive). Besides, the GI50 in the assay with ACHN was 0.174 µM (active); in the assay with SF-268 it was 0.537 µM (active); in the assay with SK-MEL-28, 0.261 µM (active); in the assay on SN12C it was 0.927 µM (active); in the assay on SK-MEL-5 it was 0.0948 µM (active); in the assay on KM12 it was 1.43 µM (inactive). In addition, the GI50 in the assay with HL-60 was 5.26 µM (inactive); in the assay with HT-29, 0.406 µM (active); in the assay on DU-145 it was 0.265 µM (active); with U-251, 1.17 µM (inactive); with HOP-92 it was 0.78 µM (active); in the assay with SNB-19, 0.811 µM (active). Also, the GI50 in the assay on RXF 393 is 0.207 µM (active); in the assay on HCT-15, 1.03 µM.
